Legend:
PPRE luciferase = PPRE luciferase activation, transient transfection reporter assay (test (a)); type: cell-based, human; conditions: positive in 184B5, 184B5/HER, HCA7, HCT116, SKBR3 and BT474 cells; 24 h treatment
Excerpt: We turn now to criterion (a), that is activation of PPRE luciferase by at least 100%. PPRE-luciferase refers to a DNA construct containing the peroxisome proliferator activated receptor (PPAR) binding element joined to luciferase. Cells are transfected with PPRE-luciferase DNA. Ligands of PPAR induce luciferase activity. The ability of a test compound to stimulate PPRE-luciferase signifies that the test compound activates PPAR-mediated gene transcription. PPRE means peroxisome proliferator response element and the method by which PPRE-luciferase is constructed is described in Schoonjans, K., et al, J. Biol. Chem. 270, No. 33, 19269-19276 (Aug. 18, 1995). Use of PPRE-luciferase in a transient transfection to measure increase in promoter activity is disclosed in Subbaramaiah, K. et al, J. Biol. Chem. 270, No. 15, 12440-12448 (Apr. 13, […]).
For each well, 1.8 μg of PPRE3-tk-luciferase construct plasmid DNA (described in Forman, B. M., et al, Cell 83, 803 (1995)) plus 0.2 μg of pSV-β-galactosidase were introduced into cells using 8 μg of LipofectAMINE as per the manufacturer's instructions (Invitrogen, CA). After 7 h of incubation, the medium was replaced with basal medium. After transfection, cells were treated with test compound for 24 h. Reporter activities which include luciferase and β-galactosidase were measured in cellular extract 24 h later. Six wells were used for each of the conditions. Luciferase activity represents data that have been normalized with β-galactosidase.
The luciferase assay was performed as per the BD Pharmingen assay reagents. The Enhanced Luciferase Assay Kit provides a firefly luciferase substrate formulation (Substrates A and B) and cell lysis buffer intended for use in measuring luciferase expressed by transfected cells. Media from cell culture plates was removed and rinsed twice with phosphate buffered saline. Enough 1X cell lysis buffer was added to cover cells and incubated at room temperature for 15-20 min. Cells were dislodged by scraping and transferred to microcentrifuge tubes. […] 20-100 μl cell extract was placed into an assay cuvette. One automatic injector type luminometer is used for assay. Manually 100 μl of Substrate A was added to the assay cuvette and automatically 100 μl of Substrate B was injected. Measurements were performed using a luminometer, for a measurement time of 10 seconds.
The β-galactosidase assay was performed as follows:
50 μl of cell lysate from above was incubated with 50 μl of o-nitrophenyl-β-D-galactoside (ONPG; 4 mg/mL) in Z buffer, (Na2HPO4.7H2O (0.06M), NaH2PO4.H2O (0.04M), 1M KCl (0.01M), 1M MgSO4 (0.001M), β-mercaptoethanol (BME) (0.05M) pH 7.0). The reaction was stopped after sufficient yellow color has developed. The yellow color developed is measured at A420 […].

EGFR = test: Western blotting for expression of EGFR (test (b)); type: cell-based, human; conditions: positive in 184B5, 184B5/HER, 1483, LNCaP, HeLa and CaSki cells; 24 h; Western blot
Excerpt: (§1) We turn now to the criterion (b), that is at least 50% decrease in level of or 50% downregulation of expression of Class I family of receptors tyrosine kinase. The Class I family of receptors tyrosine kinase is described in Reese, M. D., et al Stem Cells 15, pages 1-8 (1997), the whole of which in incorporated herein by reference. Members of the family include HER-2/neu, HER-3, HER-4 and epidermal growth factor receptor (EGFR) and are single-chain membrane spanning proteins which have significant homology to one another including about 80% amino acid identity in the tyrosine kinase domain.
Epidermal growth factor receptor (EGFR) is a 170 kDA glycoprotein. […] After ligand binding, EGFR undergoes dimerization which is essential for activation of its enzymatic kinase activity. EGFR is thus autophospliorylated and transphosphorylated on tyrosine residues, and the phosphorylated residues become the site of association of effector proteins. Overexpressed EGFR is intimately involved in modulating the epidermal growth factor growth signal and is considered as likely to confer a growth advantage. This conclusion is supported by the observation that tumor growth in nude mice is inhibited by treatment with anti-EGFR antibodies and tumorigenicity in nude mice is inhibited through blockage of the tyrosine kinase activity of the receptor.
(§2) To evaluate the expression of Class I family of receptors tyrosine kinase (EGFR, HER-2/neu), Western blotting can be performed. Antibodies for EGFR and HER-2/neu can be obtained from Santa Cruz Biotechnology, Inc.
(§3) Expression of EGFR (performed in 184B5, 184B5/HER, 1483, LNCaP, HeLa and CaSki cells)and HER-2/neu (performed in 184B5/HER, SKBR3 and BT474 cells) was assessed in cells after treatment with test compound for 24 hours. 5×10^6 cells were used for the treatment. Western blotting technique was used to assess the expression levels in cells treated with the test compound compared to vehicle alone. Western blotting was carried out as follows:
(§4) Cell lysates were prepared by treating cells with lysis buffer (150 mM NaCl, 100 mM Tris (pH 8.0), 1% Tween 20, 50 mM diethyldithiocarbamate, 1 mM EDTA, 1 mM phenylmethylsulfonyl fluoride, 10 μg/ml aprotinin, 10 μg/ml trypsin inhibitor and 10 μg/ml leupeptin). Lysates were sonicated for 20 s on ice and centrifuged at 10,000×g for 10 min to sediment the particulate material. The protein concentration of the supernatant was measured by the method of Lowry, O. H., et al., J. Biol. Chem. 193, 265-275 (195 1). SDS/PAGE was performed under reducing conditions on 10% polyacrylamide gels as described by Laemmli, U.K., Nature (Lond.) 227, 680-685 (1970). The resolved proteins were transferred onto nitrocellulose sheets as detailed by Towbin, H. et al., Proc. Natl. Acad. Sci. USA 76, 4350-4354 (1979). The nitrocellulose membrane was then incubated with anti-EGFR antiserum or anti-HER-2/neu antiserum. Secondary antibody to IgG conjugated to horseradish peroxidase was used. The various antisera were purchased from Santa Cruz Biotechnology, Inc., CA. The blots were probed with the Renaissance Western blot detection system according to the manufacturer's instructions (PerkinElmer Life Sciences, Boston, Mass.).

cyclin D1 = test: Western blotting for expression of cyclin D1 (test (c)); type: cell-based, human; conditions: positive in 184B5, 184B5/HER cells; 24 h; Western blot
Experimental: Cyclin D1 is a protein that is important in regulating cell proliferation and is described in Ortega, S., et al, Biochimica et Biophysica Acta 1602, 73-87, (2002), the whole of which is incorporated by reference. […] Effects on expression of cyclin D1 was investigated in 184B5, 184B5/HER, HCA7, HCT116, SKBR3 and BT474 cells. The expression was assessed in cells after treatment with test compound or vehicle using 5×10^4 cells for 24 hours. Western blotting technique was used as follows to assess the expression levels of cyclin D1 in cells treated with the test compound and compared to levels in cells treated with vehicle alone. Cell lysates were prepared by treating cells with lysis buffer as described above. […] The resolved proteins were transferred onto nitrocellulose sheets. The nitrocellulose membrane was then incubated with anti-cyclin D1 antiserum. Secondary antibody to IgG conjugated to horseradish peroxidase was used. The various antisera were purchased from Santa Cruz Biotechnology, Inc., CA. The blots were probed with the Renaissance Western blot detection system according to the manufacturer's instructions (PerkinElmer Life Sciences, Boston, Mass.).

Nrf-2 = test: Western and Northern blotting for expression of Nrf-2 (test (g)); type: cell-based, human; conditions: positive in 184B5, 184B5/HER, HCA7, HCT116, SKBR3, BT474 and CaSki cells
Experimental: We turn now to criterion (g), i.e. at least 50% increase in expression of Nrf-2. […] 13, 2001).
Western blotting and Northern blotting techniques were used to evaluate the expression of Nrf-2. The expression of Nrf-2 was evaluated in HCA7, HCT116, SKBR3, CaSki, 184B5/HER, 184B5 and BT474 cells. 5×10^6cells were used to treat either vehicle alone or the test compound. The Western blotting analysis was performed as described above except anti-Nrf-2 antibody was used to probe the blot. The antibody was obtained from Santa Cruz Biotechnology, Inc. CA. Northern blotting for Nrf-2 was performed as described above and cDNA for Nrf-2 as described in Gong, P., et al., J.Biol Chem 20; 276:27018-27025 (2001) was used as a probe.

HER-2/neu = test: Western blotting for expression of HER-2/neu (test (b)); type: cell-based, human; conditions: positive in 184B5/HER, BT474 and SKBR3 cells; 24 h; Western blot
Excerpt: as §1
HER-2/neu (erbB-2) gene product is a 185-kDA transmembrane receptor tyrosine kinase that is described in some detail in said Reese et al publication and overexpression thereof has been associated with tumor growth in several kinds of cancer.
as §2, §3, §4

[1] = system: HPV16 oncoproteins E6 and E7; test: Western and Northern blotting for HPV16 oncoproteins E6 and E7 (test (d)); type: cell-based, human papillomavirus; conditions: positive in CaSki and SiHa cells
Experimental: We turn now to the criterion (d), that is at least 50% downregulation of expression of HPV16 oncoproteins E6 and E7.
Protein E6 and E7 which are expressed by HPV16 are believed to play a major role in carcinogenesis.
Western blotting and Northern blotting techniques were used to evaluate the expression of HPV E6 and E7 proteins. The cell lines used for the study were CaSKi and SiHa. The cells were treated with the test compound and cell lysate was obtained as described above and subjected to Western blotting analysis. The Western blotting analysis was performed as described above except anti-HPV 16 E7 antibody was used to probe the blot. The antibody was obtained from Santa Cruz Biotechnology, Inc. CA. For Northern blotting, total cellular RNA was isolated from cell monolayers using an RNA isolation kit from QIAGEN Inc. after treatment with the test compound. 10 μg of total cellular RNA per lane were electrophoresed in a formaldehyde-containing 1.2% agarose gel and transferred to nylon-supported membranes. After baking, membranes were prehybridized overnight in a solution containing 50% formamide, 5×sodium chloride-sodium phosphate-EDTA buffer (SSPE), 5×Denhardt's solution, 0.1% SDS and 100 μg/ml single-stranded salmon sperm DNA and then hybridized for 12 h at 42° C. with radiolabeled cDNA probes for human HPV16 E6 or E7 cDNAs and 18S rRNA. E6 and E7 (as described in Woodworth, C. D., Cancer Res. 16, 4397-4402 (2000)) and 18S rRNA probes were labeled with [^32P]-CTP by random priming. After hybridization, membranes were washed twice for 20 min at room temperature in 2×SSPE-0.1% SDS, twice for 20 min in the same solution at 55° C., and twice for 20 min in 0.1×SSPE-0.1% SDS at 55° C. Washed membranes were then subjected to autoradiography.

[2] = Patient with atherosclerosis (Example VI); type: in vivo, human; conditions: person one, 200 mg bid
Excerpt: patient one presents with symptoms of chest discomfort on exertion and is diagnosed with atherosclerosis. […] The progression of the atherosclerosis stops.

[3] = Patient with cervical intraepithelial neoplasia, HPV 16 detected (Example VIII); type: in vivo, human; conditions: person, 0.5% in a cream on sponge/cervical cap, six months
Excerpt: A person presents to their gynecologist for evaluation. […] On biopsy, the patient is found to have cervical intraepithelial neoplasia. HPV 16 is detected. […] The SC-236 is discontinued with no recurrence of cervical intraepithelial neoplasia.

Compound | Test (a) activation of PPRE luciferase by at least 100% (PPRE luciferase) | Test (b) EGFR: at least 50% decrease in level of or 50% downregulation of expression (EGFR) | Test (c) at least 50% downregulation of expression of cyclin D1 (cyclin D1) | Test (g) at least 50% increase in expression of Nrf-2 (Nrf-2) | Test (b) HER-2/neu: at least 50% decrease in level of or 50% downregulation of expression (HER-2/neu) | Test (d) at least 50% downregulation of expression of HPV16 oncoproteins E6 and E7 [1] | progression of the atherosclerosis [2] | repeat biopsy finding of cervical intraepithelial neoplasia [3]
COc1ccc2c(c1)c(CC(=O)Nc1ccc(NC(C)=O)cc1)c(C)n2C(=O)c1ccc(Cl)cc1 [Indomethacin Analog 5] | + (A plus sign in the table indicates a positive result, that is meeting the test for each cell line as indicated above as providing a positive result) | + (A plus sign in the table indicates a positive result, that is meeting the test for each cell line as indicated above as providing a positive result) | + (A plus sign in the table indicates a positive result, that is meeting the test for each cell line as indicated above as providing a positive result) | + (A plus sign in the table indicates a positive result, that is meeting the test for each cell line as indicated above as providing a positive result) |  |  |  | 
COc1ccc(-n2nc(C(F)(F)F)cc2-c2ccc(Cl)cc2)cc1 [SC-560, 5-(4-chlorophenyl)-1-(4-methoxyphenyl)-3-(trifluoromethyl)-1H-pyrazole] |  |  |  |  | + (A plus sign in the table indicates a positive result, that is meeting the test for each cell line as indicated above as providing a positive result) | + (A plus sign in the table indicates a positive result, that is meeting the test for each cell line as indicated above as providing a positive result) | stops | no evidence of cervical intraepithehal neoplasia

From patent publication US20050031537A1, “Multifunctional COX-2 inhibitors” (priority 2002, published 2005)
